pIC50: −log10 of the molar value.

The experiment has as its target T1, Cytochrome P450 11B1, mitochondrial (Homo sapiens, UniProt P15538).
T1 sequence (P15538 whole entry): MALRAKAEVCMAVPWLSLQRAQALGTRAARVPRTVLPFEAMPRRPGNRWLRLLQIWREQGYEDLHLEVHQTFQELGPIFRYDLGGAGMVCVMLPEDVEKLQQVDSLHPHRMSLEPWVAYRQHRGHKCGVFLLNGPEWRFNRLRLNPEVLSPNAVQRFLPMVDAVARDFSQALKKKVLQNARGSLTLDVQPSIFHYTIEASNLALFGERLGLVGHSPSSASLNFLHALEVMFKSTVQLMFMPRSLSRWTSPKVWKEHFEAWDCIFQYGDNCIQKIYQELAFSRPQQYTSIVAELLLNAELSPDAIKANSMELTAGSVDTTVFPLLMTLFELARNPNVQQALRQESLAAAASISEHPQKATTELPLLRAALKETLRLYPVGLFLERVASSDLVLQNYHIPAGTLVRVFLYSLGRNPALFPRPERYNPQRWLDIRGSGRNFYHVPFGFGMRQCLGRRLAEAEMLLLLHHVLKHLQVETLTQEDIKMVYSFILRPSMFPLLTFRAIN
Briefly: Inhibition of recombinant CYP11 (unknown origin) expressed in human AD293 cells assessed as reduction in cortisol level preincubated for 60 mins followed by 11-deoxy cortisol substrate addition and measured after 12 hrs by LC-MS method. It is filed as cell-based.

What is called pIC50 is −log10 of the IC50, conventionally taken in molar units. Regarding `CS(=O)(=O)N1CCN(c2ccc(CO[C@H]3CO[C@@](Cn4ccnc4)(c4ccccc4Cl)OC3)cc2)CC1`, the negative-log IC50 (pIC50) was 5.00.

The record behind these values is ChEMBL document CHEMBL4257084, “Novel functionalized 5-(phenoxymethyl)-1,3-dioxane analogs exhibiting cytochrome p450 inhibition and their method of use” (2016).
